Data as given in US20250154590A1, “USE OF SET7/9 FOR DIAGNOSING AND TREATING ENDMT-RELATED DISEASE” (IBMSOL CO., LTD., priority 2021, published 2025).

Key:
PAECs [1] = assay: Dil-Ac-LDL uptake assay; type: cell-based, human; settings: TGF-β2, IL-1β and (R)-PFI-2; FIG. 9E
Procedure: PAECs were seeded at 2×10^5 cells per well in a 12-well plate. After a drug treatment, the cells were reacted with Dil-Ac-LDL (Invitrogen, 10 μg/ml) at 37° C. for 3 hours. After the reaction, the cells were washed four times with 1×PBS and then subjected to image analysis with a fluorescence microscope.

[2] = tested on: pulmonary artery endothelial cells; assay: Phalloidin staining of cytoskeleton change in EndMT-induced pulmonary artery endothelial cells; type: cell-based, human; settings: TGF-β2, IL-1β and (R)-PFI-2; FIG. 9C
Procedure: PAECs and Lenti-X-293T were immobilized with 4% formaldehyde and washed with 1×PBS. Thereafter, the cells were permeabilized with 0.2% Triton X-100 and blocked with 1% BSA dissolved in 1×PBS for 1 hour at room temperature. The cells were reacted with the following primary antibodies at 4° C. overnight: anti-VE-cadherin (Cell Signaling, 2500S, 1:100), anti-Fibronectin (BD Pharmigen, 61007, 1:100), anti-TAGLN (Abcam, ab14106, 1:200), anti-α-SMA conjugated with Cy3 (Sigma Aldrich, C6198, 1:200), anti-NF-κB p65 (Cell signaling, 8242S, 1:400), anti-SET7/9 (LsBio, C337450, 1:100), and rhodamine phalloidin (Sigma Aldrich, 1:1,000). Secondary antibodies of donkey anti-goat Alexa Fluor 488 and donkey anti-goat Alexa Fluor 568 (Invitrogen, 1:400) were reacted at room temperature for 1 hour. In order to obtain immunostaining images, a confocal microscope equipped with a 60× objective lens (Zeiss LSM-700) was used.
In order to confirm the inhibitory effect of the drug on endothelial-mesenchymal transition, a model in which pulmonary artery endothelial cells were simultaneously treated with cyproheptadine along with TGF-β2 and IL-1β for 5 to 7 days was used. […]

[3] = tested on: pulmonary artery endothelial cells; assay: EndMT marker expression (Western blot, qRT-PCR) in pulmonary artery endothelial cells treated with TGF-β2 and IL-1β; type: cell-based, human; settings: PAECs treated simultaneously with TGF-β2, IL-1β and (R)-PFI-2
Procedure: Pulmonary arterial ECs (PAECs) and human umbilical vein ECs (HUVECs) were cultured in EGM-2 (Lonza) to which MycoZap (Lonza) and 1% penicillin-streptomycin (Welgene) were added. Human Microvascular ECs (HMVECs) were cultured in EGM-2-MV (Lonza), and Lenti-λ-293T and MCF7 cells were cultured in Dulbecco's modified Eagle medium (DMEM) (HyClone) containing 10% fetal bovine serum (FBS, HyClone), 1% penicillin-streptomycin (Welgene), and MycoZap (Lonza). All cell lines were cultured at 37° C. in a 5% CO2 incubator and cultured at 90% density.
TGF-β2 was purchased from Peprotech and dissolved in pure water containing 0.1% bovine serum albumin (BSA). IL-1β was purchased from R&D System and dissolved in 1×PBS containing 0.1% BSA. […]
In order to isolate the total RNA, miRNeasy RNA isolation kit (QIAGEN) was used. The purified RNA was reverse transcribed using qPCRBIO cDNA Synthesis Kit (PCR-BIOSYSTEMS), and real-time quantitative PCR (qRT-PCR) was performed using qPCRBIO SyGreen Mix Hi-ROX (PCR-BIOSYSTEMS) according to the manufacturer's instructions. […]
All cells were lysed in radioimmunoprecipitation assay (RIPA) buffer (Biosesang) containing protease (GenDepot) and phosphatase (Sigma Aldrich) inhibitors for 20 minutes. […] A protein concentration was measured using Pierce BCA Protein Assay Kit (Thermo Scientific), and Laemmli SDS Sample Buffer was added to an equal amount of protein and boiled. […]

SET7/9 = molecular target: T1, SET7/9 (Homo sapiens, UniProt Q8WTS6); settings: acts by attaching to the substrate peptide binding groove of SET7/9; cited from earlier work
T1 sequence (Q8WTS6 1-366): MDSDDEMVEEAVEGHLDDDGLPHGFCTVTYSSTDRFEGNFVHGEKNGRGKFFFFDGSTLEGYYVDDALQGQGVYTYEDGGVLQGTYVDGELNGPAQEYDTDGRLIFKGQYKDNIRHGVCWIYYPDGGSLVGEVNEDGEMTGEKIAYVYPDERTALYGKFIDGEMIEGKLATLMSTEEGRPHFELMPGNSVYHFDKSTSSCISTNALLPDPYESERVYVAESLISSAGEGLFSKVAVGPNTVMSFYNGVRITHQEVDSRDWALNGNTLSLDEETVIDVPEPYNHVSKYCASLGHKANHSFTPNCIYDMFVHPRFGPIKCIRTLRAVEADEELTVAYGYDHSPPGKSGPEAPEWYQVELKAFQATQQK

[4] = tested on: SuHx-induced pulmonary arterial hypertension rats; assay: SuHx-induced pulmonary arterial hypertension animal model; type: in vivo, rat; settings: subcutaneously 10 mg/kg for 3 weeks
Procedure: 8-Week-old male Sprague Dawley rats (specific-pathogen-free grade form SaeronBio, Republic of Korea) were used for the PAH rat model.
Semaxanib (DC Chemicals, SU5416) dissolved in DMSO and then suspended in a buffer (0.5% sodium carboxymethylcellulose, 0.5% sodium chloride, 0.4% Tween-80, and 0.9% benzyl alcohol that were dissolved in deionized water) was injected subcutaneously into the rats at 20 mg/kg. The rats were exposed to 10% 02 hypoxic conditions for 3 weeks. After the rats were restored to normoxic conditions, Cyproheptadine (Cayman) or (R)-PFI-2 (DC Chemicals) was administered. Cyproheptadine was administered intraperitoneally every day at 5 mg/kg for 2 weeks, and (R)-PFI-2 was administered subcutaneously every 2 days at 10 mg/kg for 3 weeks. A right ventricular systolic pressure (RVSP) was measured, and the rats were sacrificed.
Proteins were separated by sodium dodecyl sulfate polyacrylamide gel electrophoresis (SDS-PAGE) and transferred to a polyvinylidene difluoride membrane (Millipore). After blocking the membrane with 3% BSA dissolved in 0.2% PBS with Tween® detergent (PBST), the proteins on the membrane were reacted with the primary antibodies listed in Table 2 overnight. For immunodetection, HRP-conjugated secondary antibodies (1:4,000) were conjugated with the primary antibodies at room temperature for 1 hour (average temperature of 22° C.), and then detected using an enhanced chemiluminescence detection system (Thermo Scientific). In order to separate cytoplasmic and nuclear proteins, EpiQuik Nuclear Extraction Kit (EpiGentek) was used according to the manufacturer's instructions. Protein extracts from animal lung tissue were homogenized in RIPA buffer for 3 minutes at a frequency of 25 Hz.
The harvested animal lung tissue was embedded in paraffin blocks and cut into […] sections. The paraffin sections were deparaffinized using Histoclear for 10 minutes. In order to hydrate the sections, ethanol dissolved in pure water was used according to a concentration gradient (100%, 90%, 70%, 50%, 30%, and 0%). The tissue slides were placed in Borg Decloaker RTU antigen retrieval solution (Biocare Medical) and the sections were heated using a pressure cooker to recover antigens. When the temperature of the recovery solution was lowered, the sections were washed three times with 1×PBS for 5 minutes each, and then blocked with a blocking buffer (1% BSA and 5% goat serum dissolved in 1×PBS) at room temperature for 30 minutes. The sections were reacted with the primary antibodies at 4° C. overnight. Anti-vWF conjugated with FITC (Abcam, ab8822, 1:50), anti-α-SMA conjugated with Cy3 (Sigma Aldrich, C6198, 1:100), anti-SM22a (Abcam, ab14106, 1:130), and anti-SET7/9 (LsBio, C337450, 1:50) were used. For fluorescent staining, the sections were reacted with the secondary antibodies such as donkey anti-goat Alexa Fluor 568 (Invitrogen, 1:150 to 1:400), Goat anti-Rabbit Alexa Fluor 647 (Invitrogen, 1:150), and donkey anti-goat Alexa Fluor 568 (Invitrogen, 1:400) at room temperature for 1 hour. For color staining, after the sections were reacted with the primary antibodies overnight, the sections were reacted with Goat anti-Mouse IgG Secondary Antibody, HRP (Pierce, 1:100) for 1 hour and subjected to a color reaction using DAB staining kit (Vector, SK-4800). Hematoxylin-eosin staining was performed using staining products available from Vector. Image analysis was performed using confocal microscopes equipped with a 40× objective available from Zeiss and Leica. The co-localization effect was verified through Mander's overlap coefficient (MOC). […]
In order to confirm the effect of (R)-PFI-2 in an animal model, (R)-PFI-2 was administered subcutaneously to SuHx-induced pulmonary arterial hypertension rats at a concentration of 10 mg/kg for 3 weeks. […]

PAECs [5] = assay: Dextran permeation assay; type: cell-based, human; settings: TGF-β2, IL-1β and (R)-PFI-2; FIG. 9D
Procedure: PAECs were seeded at 2×10^5 cells per well in a 24-well plate equipped with a cell culture inlet (SPL, 0.4 μm). After a drug treatment, the insert was transferred to a well containing a serum-free medium (SFM), the medium in the insert was replaced with SFM containing FITC-dextran (Sigma Aldrich, FD40S, 1 mg/ml). After 10 minutes and 1 hour, a part of SFM was taken out from the plate well where dextran permeation occurred, and the fluorescence was measured. The fluorescence intensity was measured on a microplate reader (excitation, 485 nm; emission, 530 nm).

O=C([C@@H](Cc1cccc(C(F)(F)F)c1)NS(=O)(=O)c1cc(F)c2c(c1)CCNC2)N1CCCC1 [(R)-PFI-2]
Dil-Ac-LDL uptake ability (PAECs [1]): restored | change in cytoskeleton (phalloidin staining) [2]: reduced | expression of endothelial cell marker CD31 and mesenchymal cell markers TNC, FN, Calponin, SM22α (Western blot) ([3]; FIG. 9A): restoration | expression of PECAM1 and FN, CDH2, COL3A1 (qRT-PCR) ([3]; FIG. 9B): restoration | mode of inhibition of SET7/9 (SET7/9): substrate competitive inhibitor | SET7/9 expression in blood vessels ([4]; SuHx rat lung tissue, FIG. 10D): decrease | area where endothelial and mesenchymal cell markers were simultaneously stained (EndMT) ([4]; SuHx rat lung tissue, FIG. 10D): decrease | right ventricular systolic pressure (RVSP mmHg) ([4]; SuHx rats, FIG. 10A): decreased | right ventricle/left ventricle+septum ratio (RV/LV+S %) ([4]; SuHx rats, FIG. 10B): decreased | right ventricle weight (RV mg) ([4]; SuHx rats, FIG. 10C): decreased | muscularization of lung tissue blood vessels (immunohistochemical staining) ([4]; SuHx rats, FIG. 10D): significantly reduced | expression of TGFβR1 in lung tissue ([4]; SuHx rats, FIG. 10F): decreased | expression of mesenchymal cell markers such as Twist and pVIM in lung tissue ([4]; SuHx rats, FIG. 10F): decreased | expression of phosphorylated SMAD2 protein in lung tissue ([4]; SuHx rats, FIG. 10F): significantly decreased | number of blocked or enlarged blood vessels in lung tissue (H&E staining) ([4]; compared to SuHx group, FIG. 10E): reduced | permeability (PAECs [5]): restored
